Data on six compounds can be found in patent EP0214303A1, “DISULFIDE COMPOUNDS AND ANTINEOPLASTIC AGENTS” (priority 1985, dated 1986).

The test system of series [1] is peripheral leukocytes. The series can be described thus: Effect on the peripheral leucocytes number (WBC4000). The format is in vivo, ddY mice. The conditions noted are these: statement in words on Table 2 (image); comparison with control compounds A, B, C, D where stated; intraperitoneal, 4 days after administration. How it is done: (4) Effect on the peripheral leucocytes number: • Sarcoma 180 solid tumor cells […] were subcutaneously implanted into the right axilla of each mouse (body weight 20 ±2 g) of a group consisting of 5 male mice (ddY strain). 24 hours after implantation, a test compound was intraperitoneally administered to each animal. 4 days after the administration, blood (each 0.02 ml) was collected from the suborbital plexus vein of each tumor-carrying animal. The collected sample of blood was dispersed in 9.98 ml of Cell-Kit Seven solution. One drop of saponin solution was added to the sample to dissolve erythrocytes and then a microcell counter was used to count the number of leucocytes. On graph paper, the number of leucocytes was indicated by an arithmetic scale on the longitudinal axis and the dose of the test compound was indicated by a logarithmic scale on the lateral axis. The relationship between the number of peripheral leucocytes and the dose of the test compound was plotted and the dose (i.e., WBC4000) corresponding to 4000 peripheral leucocytes/mm3 (about half the number of leucocytes of normal mice) was obtained.

For series [2] the following is noted: pH 7.

Turning to `COC12C(COC(N)=O)C3=C(C(=O)C(C)=C(NCCCSSCCCNC4=C(C)C(=O)C5=C(C4=O)C(COC(N)=O)C4(OC)C6NC6CN54)C3=O)N1CC1NC12` (stereo not drawn) [Compound 1, 7-N,7'-N'-(dithioditrimethylene) dimitomycin C], the “WBC4000 (dosage reducing the peripheral leukocytes to 4000/mm3)” value in series [1] is “considerably increased”.
The same measure, in the same setting: the result for `COC12C(COC(N)=O)C3=C(C(=O)C(C)=C(NCCCCSSCCCCNC4=C(C)C(=O)C5=C(C4=O)C(COC(N)=O)C4(OC)C6NC6CN54)C3=O)N1CC1NC12` (stereo not drawn) [Compound 4, 7-N,7'-N'-(dithioditetramethylene) dimitomycin C] reads “considerably increased”; that for `COC12C(COC(N)=O)C3=C(C(=O)C(C)=C(NCCCCCCSSCCCCCCNC4=C(C)C(=O)C5=C(C4=O)C(COC(N)=O)C4(OC)C6NC6CN54)C3=O)N1CC1NC12` (stereo not drawn) [Compound 8, 7-N,7'-N'-(dithiodihexamethylene) dimitomycin C], “considerably increased”.
Regarding `COC12C(COC(N)=O)C3=C(C(=O)C(C)=C(NCCCCCCCCSSCCCCCCCCNC4=C(C)C(=O)C5=C(C4=O)C(COC(N)=O)C4(OC)C6NC6CN54)C3=O)N1CC1NC12` (stereo not drawn) [Compound 10, 7-N,7'-N'-(dithiodioctamethylene) dimitomycin C], in series [2], the “solubility (result in words)” value was “scarcely soluble in water”.
For the compound `COC12C(COC(N)=O)C3=C(C(=O)C(C)=C(NCCCCSSCC(O)CO)C3=O)N1CC1NC12` (stereo not drawn) [Compound 26, 7-N-[4-(2,3-dihydroxypropyldithio)butyl] mitomycin C], the “WBC4000 (dosage reducing the peripheral leukocytes to 4000/mm3)” value in series [1] is reported as “considerably increased”.
For orientation: solubility means how much of the substance goes into solution per volume. Low values mean a poorly soluble substance, high ones a readily soluble substance. Turning to `CO[C@@]12[C@H](COC(N)=O)C3=C(C(=O)C(C)=C(NCCCCSSC[C@H](N)C(=O)NCC(=O)O)C3=O)N1C[C@@H]1N[C@@H]12` [Compound 27], the solubility is > 39 mg/mL.
